The values that follow come from patent US20250011781A1, “METHODS AND COMPOSITIONS TARGETING NUCLEUS ACCUMBENS-ASSOCIATED PROTEIN-1 FOR TREATMENT OF AUTOIMMUNE DISORDERS AND CANCERS” (THE TEXAS A&M UNIVERSITY SYSTEM, priority 2021, published 2025).

For one assay, the system named is mouse CD8+ T cells. Description: mouse CD8+ T cells cultured in CM from NAC1 KO B16-OVA cells supplemented with LA. In kind it is cell-based. The note with it: 2 mM or 5 mM LA. As to the method: Next, mouse CD8^+ T cells in the CM from NAC1 KO mouse B16-OVA cells were cultured and the medium was supplemented with or without 2 mM or 5 mM LA. The addition of LA reduced the production of cytokines including TNF-alpha and IFN-gamma and increased the expression of PD-1 and TIM-3 of CD8^+ T cells (FIGS. 9A-9D). […] In parallel, NAC1 KO tumor cells were transfected with an LDHA expression retroviral vector or a retroviral backbone to overexpress LDHA in NAC1 KO B16-OVA. The mouse CD8^+ T cells in the CM were cultured from NAC1 KO B16-OVA cells overexpressing LDHA (NAC1 KO LDHA OE) or an empty control (NAC1 KO Mock). The overexpression of LDHA conferred NAC1 KO mouse tumor cells with the ability to suppress the production of cytokines and increased expression of PD-1 (FIGS. 9I-9L) and apoptosis (FIGS. 9M-9P) of mouse cytotoxic CD8^+ T cells.
In vitro analysis of CD8^+ T cells. For cytotoxicity analysis, after 24 hours of activation 5×10^5 CD8^+ T cells were cultured with WT B16-OVA and NAC1 KO B16-OVA tumor cells in the ratio of 1:5 and 1:10 respectively. Cytotoxicity was measured by the CytoTox 96 Non-Radioactive Cytotoxicity Assay from Promega (#G1780, Madison, Wisconsin, USA). For cytokine expression analysis, the CD8^+ T cells were cultured with the conditional medium (CM) that was collected from WT B16-OVA and NAC1 KO B16-OVA melanoma cells for 12 hours. Before harvesting the cells, the cells were blocked with the Monensin Solution from BioLegend (#420701, San Diego, California, USA) for 4 hours. For apoptosis analysis, after 12 hours of activation the CD8^+ T cells were incubated with the CM that was collected from WT B16-OVA and NAC1 KO B16-OVA cells for 12 hours, in the absence or presence of L-LA from Sigma-Aldrich (St Louis, MI). […]
Flow Cytometric analysis. […] Stained cell populations were acquired by LSRFortessa from BD Biosciences (Franklin, New Jersey, USA), and the results were analyzed by using FlowJo software from Tree Star (Ashland, Oregon, USA).

The subject of another assay is tumor growth. The note with it: cited from earlier work.
The target in the next assay is T1, NAC1 (Homo sapiens, UniProt Q96RE7).
T1 sequence (Q96RE7 1-527): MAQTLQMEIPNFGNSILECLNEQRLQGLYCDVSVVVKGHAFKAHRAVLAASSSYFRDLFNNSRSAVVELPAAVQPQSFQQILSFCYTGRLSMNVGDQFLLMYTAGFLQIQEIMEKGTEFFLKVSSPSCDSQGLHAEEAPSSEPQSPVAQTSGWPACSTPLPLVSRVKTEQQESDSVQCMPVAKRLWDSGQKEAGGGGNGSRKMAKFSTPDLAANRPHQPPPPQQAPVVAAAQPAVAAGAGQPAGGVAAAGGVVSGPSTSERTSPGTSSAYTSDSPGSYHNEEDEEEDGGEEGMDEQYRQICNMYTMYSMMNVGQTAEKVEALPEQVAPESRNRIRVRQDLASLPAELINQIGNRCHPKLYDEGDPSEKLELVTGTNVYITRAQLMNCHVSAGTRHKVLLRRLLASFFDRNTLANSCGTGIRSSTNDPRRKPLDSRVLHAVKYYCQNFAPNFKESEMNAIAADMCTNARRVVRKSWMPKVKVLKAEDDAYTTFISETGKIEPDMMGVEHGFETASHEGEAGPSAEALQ
The conditions noted are these: cited from earlier work.

In a further assay the test system is Tregs. The assay is described as follows: treatment of Tregs with pro-inflammatory cytokines. In kind it is cell-based, mouse. On the procedure:
T cell culture. T cells were cultured in 48-well plates containing 1 ml RPMI 1640 (Invitrogen) with 10% fetal calf serum (Omega Scientific, CA). T cell isolation kits including mouse CD4^+ (#130-104-454), CD8a^+ (#130-104-075) and CD4^+ CD25^+ Treg (#130-091-041), T cell activation/expansion kit (#130-093-627) and Treg expansion kit (#130-095-925) were purchased from the Miltenyi Biotec (Auburn, CA). Recombinant mouse TGF-β (#763104), IL-10 (#575106), and TNF-α (#575206) were obtained from BioLegend (San Diego, CA).

`CC(O)C(=O)O` (stereo not drawn) [LA, lactic acid]: in the assay with mouse CD8+ T cells, the “apoptosis determined by Annexin V staining” value is “higher percentage of apoptosis”; the “expression of PD-1 and TIM-3 of CD8+ T cells” value was “increased”; the “production of cytokines including TNF-alpha and IFN-gamma” value is reported as “reduced”.

Turning to `CC(C)(C)c1ccc(OCC(=O)NCCNC(=O)COc2ccc(C(C)(C)C)cc2)cc1` [NIC3], the antitumor activity result with tumor growth was “shows antitumor activity”. Also, the NAC1 homodimerization result on NAC1 is “can interrupt NAC1 homodimerization”.

In the case of TNF-α, in the assay on Tregs, the “FoxP3 and acetylated FoxP3 in Tregs” value was “evident downregulation”; the “NAC1 expression in Tregs” value is given as “robust upregulation”.

B1: IL-10: recombinant mouse cytokine from BioLegend (protein, UniProt P18893 19-178, looked up)
Interleukin-10: SRGQYSREDNNCTHFPVGQSHMLLELRTAFSQVKTFFQTKDQLDNILLTDSLMQDFKGYLGCQALSEMIQFYLVEVMPQAEKHGPEIKEHLNSLGEKLKTLRMRLRRCHRFLPCENKSKAVEQVKSDFNKLQDQGVYKAMNEFDIFINCIEAYMMIKMKS
For the molecule B1, in the assay with Tregs, the “FoxP3 and acetylated FoxP3 in Tregs” value is listed as “evident downregulation”; the “NAC1 expression in Tregs” value is “robust upregulation”.
